Results: paper PMC8707145, “Synthesis, Molecular Docking and Antiplasmodial Activities of New Tetrahydro-β-Carbolines” (International Journal of Molecular Sciences, 2021)
Read-outs that look alike come from different tables or passages of the source.

Legend:
[1] = test system: human microvascular endothelial (HMEC-1) cell line; test: Cytotoxicity assay on HMEC-1 cell line (MTT); type: cell-based; settings: for SI D10: SI = IC50 HMEC-1/IC50 P. falciparum D10 strain; for SI W2: SI = IC50 HMEC-1/IC50 P. falciparum W2 strain
Description: (§1) The long-term human microvascular endothelial cell line (HMEC-1) was maintained in MCDB 131 medium supplemented with 10% fetal calf serum, 10 ng/mL of epidermal growth factor, 1 µg/mL of hydrocortisone, 2 mM glutamine and 20 mM Hepes buffer. For the cytotoxicity assays, cells were treated with serial dilutions of test compounds and cell proliferation evaluated using the MTT assay. Plates were incubated for 72 h at 37 °C in 5% CO2, then 20 µL of a 5 mg/mL solution of 3-(4,5-dimethylthiazol-2-yl)-2,5-diphenyltetrazolium bromide (MTT) in PBS was added for an additional 3 h at 37 °C. The plates were then centrifuged, the supernatants discarded, and the dark blue formazan crystals dissolved using 100 µL of lysing buffer consisting of 20% (w/v) of a solution of SDS, 40% of N,N dimethylformamide in H2O, at pH 4.7 adjusted with 80% acetic acid. The plates were then read on a microplate reader (Synergy 4 Bio-Tek Instruments, Thermo Fisher Scientific, Waltham, MA, USA) at a test wavelength of 550 nm and a reference wavelength of 650 nm. All the tests were performed in triplicate at least three times.

[2] = Cytotoxicity assay on HMEC-1 cell line (MTT); type: cell-based, human; settings: human, HMEC-1 cells; HMEC-1, MTT, 72 h
Description: as §1

[3] = test system: P. falciparum W2 (CQ-resistant) strain; test: P. falciparum drug susceptibility assay (pLDH), W2 strain; type: cell-based, Plasmodium falciparum; settings: for IC50: Plasmodium falciparum, read-out: P. falciparum IC50 W2; for RI (resistance index): RI = IC50 CQ resistant P. falciparum strain/IC50 CQ sensitive P. falciparum strain
Description: Plasmodium falciparum cultures were established according to the method of Trager and Jensen, with slight modifications. The CQ-susceptible strain, D10, and the CQ-resistant strain, W2, were maintained in human type A-positive red blood cells at 5% hematocrit in RPMI 1640 medium with the addition of 1% AlbuMax, 0.01% hypoxanthine, 20 mM Hepes, and 2 mM glutamine. Cultures were maintained at 37 °C in a gas mixture consisting of 1% O2, 5% CO2, and 94% N2. Compounds were dissolved in DMSO and diluted with medium to achieve the required concentrations (final DMSO concentration <1%, which is non-toxic to the parasite). Drugs were introduced into 96-well flat-bottomed microplates and serial dilutions made. Asynchronous cultures with parasitaemia of 1–1.5% and 1% final hematocrit were aliquoted into the plates and incubated for 72 h at 37 °C. Parasite growth was determined spectrophotometrically (OD650) by measuring the activity of parasite lactate dehydrogenase (pLDH), according to a modified version of the method of Makler, in both control and drug-treated cultures.

[4] = Determination of hemolytic activity; type: cell-based; settings: human erythrocytes, released hemoglobin, read-out: level of hemolysis
Description: We also sought to investigate the hemolytic potential of the synthetized compounds. […] We incubated these compounds at a concentration of 10 µM, with human erythrocytes, and then, by measuring the released hemoglobin, we assessed their potential harmful effects on these cells. The measured level of hemolysis was less than 5% for all agents, which proves that the compounds are not hemolytic. It is worth emphasizing at this point that this type of test is extremely important to confirm that the observed inhibitory activity against Plasmodium is a result of a compound acting directly upon it and not as a result of red blood cell lysis.
The study protocol was approved by the Bioethics Commission at the Lower Silesian Medical Chamber (1/PNHAB/2018, approval date 14 February 2018), and experiments were performed as previously described. Compounds dissolved in DMSO were added in a volume corresponding to a final concentration of 10 µM in the sample. Negative (erythrocytes in PBS buffer), positive (erythrocytes in distilled water), and DMSO controls were also prepared.

[5] = test system: P. falciparum D10 (CQ-sensitive) strain; test: P. falciparum drug susceptibility assay (pLDH), D10 strain; type: cell-based; settings: Plasmodium falciparum, read-out: P. falciparum IC50 D10
Description: Plasmodium falciparum cultures were established according to the method of Trager and Jensen, with slight modifications. […] Drugs were introduced into 96-well flat-bottomed microplates and serial dilutions made. […] Parasite growth was determined spectrophotometrically (OD650) by measuring the activity of parasite lactate dehydrogenase (pLDH), according to a modified version of the method of Makler, in both control and drug-treated cultures.

P. falciparum Dd2 strain = test system: P. falciparum Dd2 strain; parameters: method as in PMID 29072835; settings: ref [10], read-out: IC50 growth of P. falciparum Dd2 strain; cited from earlier work
P. falciparum 3D7 strain = test system: P. falciparum 3D7 strain; parameters: method as in PMID 30411030; settings: ref [11], cited from earlier work
[6] = test system: P. falciparum RKL-9 strain; parameters: method as in PMID 30411030; settings: ref [11], cited from earlier work
[7] = test system: normal dermal fibroblasts; parameters: method as in PMID 30411030; settings: ref [11]; cited from earlier work
[8] = test system: human microvascular endothelial (HMEC-1) cell line; settings: read-out: IC50 on HMEC-1 cell line, ref [21]; cited from earlier work
P. falciparum = settings: read-out: 50% inhibitory concentration (IC50); range of values; no diminished potency against drug-resistant strains; ref [8]; cited from earlier work
[9] = W2 (CQ-resistant) strain, 72 h, pLDH
[10] = D10 (CQ-sensitive) strain, 72 h, pLDH

SMILES	SI D10 [1]	SI W2 [1]	IC50 at 72 h [2] [µM]	IC50 [3, 9] [µM]	RI (resistance index) [3]	IC50 [5, 10] [µM]	further results
O=C(NCCCN1CCOCC1)C1Cc2c([nH]c3ccccc23)C(c2ccc(Cl)cc2)N1 (stereo not shown) [Compound 12, 1-(4-chlorophenyl)-N-(3-morpholinopropyl)-2,3,4,9-tetrahydro-1H-pyrido[3,4-b]indole-3-carboxamide]	8.91	16.60	102 ± 14.8	6.15 ± 0.46	0.54	11.5 ± 0.34	hemolysis at 10 µM [4]: < 5%
O=C(NCC1COCCO1)C1Cc2c([nH]c3ccccc23)C(c2ccc(Cl)cc2)N1 (stereo not shown) [Compound 11, N-((1,4-dioxan-2-yl)methyl)-1-(4-chlorophenyl)-2,3,4,9-tetrahydro-1H-pyrido[3,4-b]indole-3-carboxamide]	–	–	–	29.1 ± 4.05	0.82	35.4 ± 4.86	–
CC1NC(C(=O)NCC2CCCCC2)Cc2c1[nH]c1ccccc21 (stereo not shown) [Compound 5, N-(cyclohexylmethyl)-1-methyl-2,3,4,9-tetrahydro-1H-pyrido[3,4-b]indole-3-carboxamide]	–	–	–	16.2 ± 4.11	0.48	33.5 ± 7.58	–
O=C(NC1CCCCCCC1)C1Cc2c([nH]c3ccccc23)CN1 (stereo not shown) [Compound 2, N-cyclooctyl-2,3,4,9-tetrahydro-1H-pyrido[3,4-b]indole-3-carboxamide]	–	–	–	10.1 ± 2.14	0.46	21.9 ± 5.82	–
O=C(NCC1CCCO1)C1Cc2c([nH]c3ccccc23)C(c2ccc(Cl)cc2)N1 (stereo not shown) [Compound 10, 1-(4-chlorophenyl)-N-((tetrahydrofuran-2-yl)methyl)-2,3,4,9-tetrahydro-1H-pyrido[3,4-b]indole-3-carboxamide]	–	–	–	20.5 ± 2.2	0.70	29.4 ± 7.88	–
O=C(O)[C@@H]1Cc2c([nH]c3ccccc23)[C@@H](c2ccc(Cl)cc2Cl)N1 [MMV008138]	–	–	–	–	–	–	IC50 (P. falciparum Dd2 strain): 0.25 µM
CC(C)(C)CC(C)(C)NC(=O)C1Cc2c([nH]c3ccccc23)C(c2ccc(Cl)cc2)N1 (stereo not shown) [Compound 9, 1-(4-chlorophenyl)-N-(2,4,4-trimethylpentan-2-yl)-2,3,4,9-tetrahydro-1H-pyrido[3,4-b]indole-3-carboxamide]	2.25	2.95	18.9 ± 10.2	6.41 ± 1.05	0.76	8.41 ± 1.2	–
COC(=O)[C@@H]1Cc2c([nH]c3ccccc23)[C@@H](c2ccc3c(c2)OCO3)N1 [Compound 9a]	–	–	–	–	–	–	IC50 (P. falciparum 3D7 strain; 3D7 strain): < 2.86 µM; selectivity index 3D7 (P. falciparum 3D7 strain; against 3D7 strain): > 10; IC50 ([6]; RKL-9 strain): < 2.86 µM; selectivity index RKL-9 ([6]; against RKL-9 strain): > 10; toxicity to normal dermal fibroblasts [7]: nontoxic
CCN(CC)CCCC(C)Nc1ccnc2cc(Cl)ccc12 (stereo not shown) [CQ, chloroquine, reference compound]	–	–	–	–	–	–	IC50 ([3]; W2, 72 h): 0.27 ± 0.07 µM; IC50 [8]: > 38 µM; IC50 ([5]; D10, 72 h): 0.017 ± 0.006 µM
CCC1NC(C(=O)NC23CC4CC(CC(C4)C2)C3)Cc2c1[nH]c1ccccc21 (stereo not shown) [Compound 6, N-(Adamantan-1-yl)-1-ethyl-2,3,4,9-tetrahydro-1H-pyrido[3,4-b]indole-3-carboxamide]	2.17	1.86	21.1 ± 8.82	11.4 ± 0.82	1.17	9.73 ± 0.96	–
O=C(NC1CCCCC1)[C@@H]1Cc2c([nH]c3ccccc23)[C@H](c2ccc(Cl)cc2)N1 (racemic) [1RS,3RS-13, (1SR,3SR)-1-(4-chlorophenyl)-N-cyclohexyl-2,3,4,9-tetrahydro-1H-pyrido[3,4-b]indole-3-carboxamide]	3.35	4.00	53.8 ± 21.9	13.5 ± 1.99	0.84	16.1 ± 3.36	–
CCCCCCCCC1NC(C(=O)NCCC(C)(C)C)Cc2c1[nH]c1ccccc21 (stereo not shown) [Compound 7, N-(3,3-dimethylbutyl)-1-octyl-2,3,4,9-tetrahydro-1H-pyrido[3,4-b]-indole-3-carboxamide]	16.18	18.00	72 ± 22.4	4 ± 0.53	0.90	4.45 ± 0.83	hemolysis at 10 µM [4]: < 5%
CC1NC(C(=O)N2CCCCC2)Cc2c1[nH]c1ccccc21 (stereo not shown) [Compound 3, (1-methyl-2,3,4,9-tetrahydro-1H-pyrido[3,4-b]indol-3-yl)(piperidin-1-yl)methanone]	11.93	16.37	157 ± 42.5	9.6 ± 0.78	0.73	13.2 ± 2.85	hemolysis at 10 µM [4]: < 5%
O=C(NC1CCCCC1)[C@@H]1Cc2c([nH]c3ccccc23)[C@@H](c2ccc(Cl)cc2)N1 (racemic) [1RS,3SR-13, (1RS,3SR)-1-(4-chlorophenyl)-N-cyclohexyl-2,3,4,9-tetrahydro-1H-pyrido[3,4-b]indole-3-carboxamide]	–	–	> 123	9.13 ± 0.83	0.73	12.5 ± 0.71	–
CC(C)(C)CCNC(=O)C1Cc2c([nH]c3ccccc23)C(c2ccc(Cl)cc2)N1 (stereo not shown) [Compound 8, 1-(4-chlorophenyl)-N-(3,3-dimethylbutyl)-2,3,4,9-tetrahydro-1H-pyrido[3,4-b]indole-3-carboxamide]	1.71	2.30	17.9 ± 9.46	7.8 ± 1.54	0.74	10.5 ± 1.53	–
C[C@H]1Cc2c([nH]c3cc(Cl)c(F)cc23)[C@@]2(N1)C(=O)Nc1ccc(Cl)cc12 [Cipargamin]	–	–	–	–	–	–	IC50 (P. falciparum): 0.0005 to 0.0014 µM
O=C(NCC1CCCCC1)C1Cc2c([nH]c3ccccc23)C(c2ccc(Cl)cc2)N1 (stereo not shown) [Compound 14, 1-(4-chlorophenyl)-N-(cyclohexylmethyl)-2,3,4,9-tetrahydro-1H-pyrido[3,4-b]indole-3-carboxamide]	–	–	–	> 47.4	–	> 47.4	–
CC1NC(C(=O)NC2CCCCC2)Cc2c1[nH]c1ccccc21 (stereo not shown) [Compound 4, N-cyclohexyl-1-methyl-2,3,4,9-tetrahydro-1H-pyrido[3,4-b]indole-3-carboxamide]	–	–	–	20.1 ± 2.79	0.94	21.4 ± 4.7	–
